Patent US20070059339A1, “1-O-BETA-D-glucopyranosylgeraniol-10,5-olide and use thereof” (ISKRA INDUSTRY CO., LTD., priority 2005, published 2007)
“Also recorded” adds a separate entry of the source. Marks after values point to notes of the source that are not given here.

Assays:
[1] = Obesity ameliorating, lipid metabolism ameliorating and hypoglycemic action in mice bred with a high fat diet; assay type: in vivo, ddY male SPF mice
Description: 6 week-old ddY male SPF mice (Nippon .SLC, body weight: about 30 g) were pre-bred for 1 week, then, divided into two groups of a control group and an administration group (5 mice for each group). Each of the mice in both the groups was bred for 6 weeks with a high fat diet (lard 40%, corn starch 10%, granulated sugar 9%, mineral mix 4%, vitamin mix 1%, casein 29%, cellulose 5%, lactose 2%). For the mice in the administration group, a specimen solution prepared by dissolving the compound (I) in purified water was continuously administered for 6 weeks with a dose of 250 mg/kg once a day while allowing water-drinking, and the body weight was measured at a frequency of once a week, during the feeding period with the high fat diet. For the mice in the control group, purified water was administered for 6 weeks instead of the specimen solution while allowing water-drinking.
The average value of the body weight of mice in each group and the standard error thereof were measured, and a significant difference test (t-test) between both the groups was carried out.
On the other hand, after completion of the above-mentioned continuous administration allowing water-drinking for 6 weeks, serum was collected from each mouse and blood biochemical values were measured, and liver and fat were excised and the weights of them were measured, respectively. Using the respective measurement results, the average value and the standard error were measured for each group, and a significant difference test (t-test) was carried out between both the groups.

[2] = Oral administration for two weeks at 2500 mg/kg per day, observation of side effects; assay type: in vivo; settings: ten ICR male mice, versus control group
[3] = Hair growth ameliorating action on hair-removed back of mice, transdermal administration; assay type: in vivo, C3H male mice; settings: for Hair growth score versus control group (FIG. 9): 10 mg once a day
Description: 6 week-old C3H male mice (Nippon SLC, body weight: about 30 g) were pre-bred for 1 week, then, divided into two groups of a control group and an administration group (4 mice for each group). Hair on the back of the mice in both groups was removed with an electric shaver, and hair growth effect was investigated. […] For the mice in the control group, 45% water-containing ethanol was transdermally administered instead of the specimen solution for 28 days.
For observation of hair growth condition, hair growth score and hair length were measured.
For measurement of hair growth score, the back of a mouse on which a specimen solution or 45% water-containing ethanol had been applied was visually observed, and based on the conditions directly after hair removal, a case of no change was endowed with 0 point, a case of color change to blue at a center portion on the back was endowed with 1 point, a case of color change from blue black to gray at a center portion on the back was endowed with 2 points, a case of observation of hair growth at a center portion on the back was endowed with 3 points, and a case of covering about 50% at a center portion on the back with back hair and recovery of color before hair removal at a center portion on the back was endowed with 4 points. The score average value and the standard error of the mice in both the groups were measured. Since there was observed […] irregularity in hair growth score between the control group and the administration group, the Mann-Whitney U-test was carried out as a significant difference test between both groups.
On the other hand, for measurement of hair length, part of hair was collected every one week, then, 10 hairs were selected randomly while removing extremely longer hairs and extremely shorter hairs, and lengths of them were measured by a microscope.

[4] = 250 mg/kg once a day for 6 weeks, average +/- standard error of five mice
[5] = serum after 6 weeks, 250 mg/kg once a day, average +/- standard error of five mice

Q: Which “Weight of fat, around kidney” value [1, 4] does the source give for `CC(C)=CC1C/C(=C/CO[C@@H]2OC(CO)[C@@H](O)C(O)C2O)C(=O)O1` (stereo partly drawn) [compound (I), 1-O-β-D-glucopyranosylgeraniol-10,5-olide] here?
A: 0.035 ± 0.010 g

Q: And the “Weight of fat, around posterior abdominal wall” value [1, 4]?
A: 0.186 ± 0.096 g

Q: What about the “Body weight versus control group (FIG. 8)” value ([1]; 250 mg/kg once a day for 6 weeks, weighed once a week) of the same molecule?
A: the body weight transited at a lower level

Q: And the “Blood biochemical value, blood glucose level” value ([1]; after 6 weeks, 250 mg/kg once a day, average +/- standard error of five mice)?
A: 183 +/− 35.7** mg/dL

Q: And the Weight of liver ([1]; compound 250 mg/kg once a day for 6 weeks, average +/- standard error of five mice)?
A: 1.124 ± 0.124 g

Q: What about the “Blood biochemical value, total cholesterol” value [1, 5] of the same molecule?
A: 118 ± 22.3 mg/dL

Q: What about the “Blood biochemical value, triglyceride” value [1, 5] of the same molecule?
A: 26 ± 15.8 mg/dL

Q: What about the Side effect [2] of the same molecule?
A: did not provide a recognizable side effect; also recorded: no side effect was recognized at all

Q: And the “Hair growth score versus control group (FIG. 9)” value ([3]; day 7 to day 17 after transdermal administration)?
A: tended to be higher

Q: And the “Hair growth score versus control group (FIG. 9)” value ([3]; days 13, 15 and 16 after transdermal administration, Mann-Whitney U-test)?
A: significantly higher

Q: And the “Hair length versus control group” value ([3]; hair collected every one week, 10 hairs measured by microscope, 10 mg transdermally once a day, data not shown)?
A: no significant difference
